Where two headings read alike, the source gives them in different places.
Target: human PDE4D catalytic domain (Homo sapiens (Human), UniProt Q08499)
Test: PDE4 Assay (TR-FRET, FAM-cAMP cleavage)
Assay type: biochemical
Details: read-out: PDE4 IC50 range
In short: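 PDE4D catalytic domain (S380-L740) incubated briefly with unlabelled cAMP plus FAM-cAMP and titrated compound. Reaction stopped with binding buffer holding metal-ion nanoparticles that bind AMP phospho groups and Tb donor, and AMP formation read by TR-FRET. IC50 versus controls, reported as ranges (nM).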

[1] = human PDE4D catalytic domain (UniProt Q08499 [S380-L740]), 50% inhibition of substrate cleavage

human PDE4D catalytic domain, sequence (Q08499 380-740): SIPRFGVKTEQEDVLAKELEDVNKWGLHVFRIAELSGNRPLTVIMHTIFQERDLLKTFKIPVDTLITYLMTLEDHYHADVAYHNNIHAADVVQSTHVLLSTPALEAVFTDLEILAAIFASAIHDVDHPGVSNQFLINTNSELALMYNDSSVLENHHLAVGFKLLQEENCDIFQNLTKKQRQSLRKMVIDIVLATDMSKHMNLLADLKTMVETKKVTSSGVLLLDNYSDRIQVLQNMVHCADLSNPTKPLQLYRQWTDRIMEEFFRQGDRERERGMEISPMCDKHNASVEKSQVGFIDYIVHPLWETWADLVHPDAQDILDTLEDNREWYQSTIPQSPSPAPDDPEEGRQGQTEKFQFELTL

CCn1nc(C[C@@H](C)COC(=O)c2ccc(S(=O)(=O)N(C)C)cc2)c2c1C(=O)NCC1(CCOCC1)C2 [Example 161, [(2R)-3-(1-ethyl-8-oxo-spiro[6,7-dihydro-4H-pyrazolo[3,4-c]azepine-5,4′-tetrahydropyran]-3-yl)-2-methyl-propyl] 4-(di-methylsulfamoyl)benzoate]
IC50 [1]: < 100 nM

CCn1nc(C[C@@H](C)COC(=O)c2ccc(S(=O)(=O)N3CCOCC3)cc2)c2c1C(=O)NCC1(CCOCC1)C2 [Example 165, [(2R)-3-(1-ethyl-8-oxo-spiro[6,7-dihydro-4H-pyrazolo[3,4-c]azepine-5,4′-tetrahydropyran]-3-yl)-2-methyl-propyl] 4-morpholinosulfonylbenzoate]
IC50 [1]: < 100 nM

CCn1nc(C[C@@H](C)COC(=O)c2ccccc2OC)c2c1C(=O)NCC1(CCOCC1)C2 [Example 151, [(2R)-3-(1-ethyl-8-oxo-spiro[6,7-dihydro-4H-pyrazolo[3,4-c]azepine-5,4′-tetrahydropyran]-3-yl)-2-methyl-propyl] 2-methoxybenzoate]
IC50 [1]: < 100 nM

CCn1nc(CC(C)(C)COC(=O)c2cnsc2)c2c1C(=O)NCC1(CCOCC1)C2 [Example 304, [3-(1-ethyl-8-oxo-spiro[6,7-dihydro-4H-pyrazolo[3,4-c]azepine-5,4′-tetrahydro-pyran]-3-yl)-2,2-dimethyl-propyl] isothiazole-4-carboxylate]
IC50 (Table 17, Examples 297-316): < 100 nM

CCn1nc(CCCOC(=O)c2ccc(Cl)cc2)c2c1C(=O)NCC1(CCOCC1)C2 [Example 22, 3-(1-ethyl-8-oxo-spiro[6,7-dihydro-4H-pyrazolo[3,4-c]azepine-5,4′-tetrahydropyran]-3-yl)propyl 4-chlorobenzoate]
IC50 [1]: < 100 nM

CCn1nc(CC(C)(C)COC(=O)c2cccc(S(=O)(=O)C(C)C)c2)c2c1C(=O)NCC1(CCOCC1)C2 [Example 206, [3-(1-ethyl-8-oxo-spiro[6,7-dihydro-4H-pyrazolo[3,4-c]azepine-5,4′-tetrahydropyran]-3-yl)-2,2-dimethyl-propyl] 3-isopropylsulfonylbenzoate]
IC50 [1]: < 100 nM

CCn1nc(CCCOC(=O)c2cccc(C(=O)N3CCCCC3)c2)c2c1C(=O)NCC1(CCOCC1)C2 [Example 117, 3-(1-ethyl-8-oxo-spiro[6,7-dihydro-4H-pyrazolo[3,4-c]azepine-5,4′-tetrahydropyran]-3-yl)propyl 3-(piperidine-1-carbonyl)benzoate]
IC50 [1]: < 100 nM

CCn1nc(CCCOC(=O)c2ccc(F)c(Cl)c2)c2c1C(=O)NCC1(CCOCC1)C2 [Example 54, 3-(1-ethyl-8-oxo-spiro[6,7-dihydro-4H-pyrazolo[3,4-c]azepine-5,4′-tetrahydropyran]-3-yl)propyl 3-chloro-4-fluoro-benzoate]
IC50 [1]: < 100 nM

CCn1nc(CCCOC(=O)c2cccc(C(=O)N(C)C)c2)c2c1C(=O)NCC1(CCOCC1)C2 [Example 115, 3-(1-ethyl-8-oxo-spiro[6,7-dihydro-4H-pyrazolo[3,4-c]azepine-5,4′-tetrahydropyran]-3-yl)propyl 3-(dimethyl-carbamoyl)benzoate]
IC50 [1]: < 100 nM

CCn1nc(CCCOC(=O)c2ccc(F)cc2OC)c2c1C(=O)NCC1(CCOCC1)C2 [Example 40, 3-(1-ethyl-8-oxo-spiro[6,7-dihydro-4H-pyrazolo[3,4-c]azepine-5,4′-tetrahydropyran]-3-yl)propyl 4-fluoro-2-methoxy-benzoate]
IC50 [1]: < 100 nM

CCn1nc(CCCOC(=O)c2cc(Cl)ccc2C(F)(F)F)c2c1C(=O)NCC1(CCOCC1)C2 [Example 87, 3-(1-ethyl-8-oxo-spiro[6,7-dihydro-4H-pyrazolo[3,4-c]azepine-5,4′-tetrahydro-pyran]-3-yl)propyl 5-chloro-2-(trifluoromethyl)benzoate]
IC50 [1]: < 100 nM

CCn1nc(CC(C)(C)COC(=O)C2CCN(C(=O)OC)CC2)c2c1C(=O)NCC1(CCOCC1)C2 [Example 315, [3-(1-ethyl-8-oxo-spiro[6,7-dihydro-4H-pyrazolo[3,4-c]azepine-5,4′-tetrahydro-pyran]-3-yl)-2,2-dimethyl-propyl] 1-methoxycarbonyl-peridine-4-carboxylate]
IC50 (Table 17, Examples 297-316): < 100 nM

CCn1nc(C[C@@H](C)COC(=O)c2cccc(S(=O)(=O)N3CCOCC3)c2)c2c1C(=O)NCC1(CCOCC1)C2 [Example 164, [(2R)-3-(1-ethyl-8-oxo-spiro[6,7-dihydro-4H-pyrazolo[3,4-c]azepine-5,4′-tetrahydropyran]-3-yl)-2-methyl-propyl] 3-morpholinosulfonylbenzoate]
IC50 [1]: < 100 nM

CCn1nc(CC(C)(C)COC(=O)c2cccc(C(=O)N3CCCCC3)c2)c2c1C(=O)NCC1(CCOCC1)C2 [Example 231, [3-(1-ethyl-8-oxo-spiro[6,7-dihydro-4H-pyrazolo[3,4-c]azepine-5,4′-tetrahydro-pyran]-3-yl)-2,2-dimethyl-propyl] 3-(piperidine-1-carbonyl)benzoate]
IC50 [1]: < 100 nM

CCn1nc(CCOC(=O)c2ccc(C)cc2)c2c1C(=O)NCC1(CCOCC1)C2 [Example 135, 2-(1-ethyl-8-oxo-spiro[6,7-dihydro-4H-pyrazolo[3,4-c]azepine-5,4′-tetrahydropyran]-3-yl)ethyl 4-methylbenzoate]
IC50 [1]: < 100 nM

CCn1nc(CCCOC(=O)C(C)C)c2c1C(=O)NCC1(CCOCC1)C2 [Example 4, 3-(1-ethyl-8-oxo-spiro[6,7-dihydro-4H-pyrazolo[3,4-c]azepine-5,4′-tetrahydropyran]-3-yl)propyl 2-methylpropanoate]
IC50 [1]: < 100 nM

CCn1nc(CCCOC(=O)c2ccns2)c2c1C(=O)NCC1(CCOCC1)C2 [Example 242, 3-(1-ethyl-8-oxo-spiro[6,7-dihydro-4H-pyrazolo[3,4-c]azepine-5,4′-tetrahydropyran]-3-yl)propyl isothiazole-5-carboxylate]
IC50 [1]: < 100 nM

CCn1nc(CCCOC(=O)c2cccc(OC)c2)c2c1C(=O)NCC1(CCOCC1)C2 [Example 17, 3-(1-ethyl-8-oxo-spiro[6,7-dihydro-4H-pyrazolo[3,4-c]azepine-5,4′-tetrahydropyran]-3-yl)propyl 3-methoxybenzoate]
IC50 [1]: < 100 nM

CCn1nc(CCCOC(=O)c2cc(F)cc(Cl)c2)c2c1C(=O)NCC1(CCOCC1)C2 [Example 47, 3-(1-ethyl-8-oxo-spiro[6,7-dihydro-4H-pyrazolo[3,4-c]azepine-5,4′-tetrahydropyran]-3-yl)propyl 3-chloro-5-fluoro-benzoate]
IC50 [1]: < 100 nM

CCn1nc(CCCCOC(=O)c2cscn2)c2c1C(=O)NCC1(CCOCC1)C2 [Example 269, 4-(1-ethyl-8-oxo-spiro[6,7-dihydro-4H-pyrazolo[3,4-c]azepine-5,4′-tetrahydropyran]-3-yl)butyl thiazole-4-carboxylate]
IC50 [1]: < 100 nM

Reference: patent US10793580B2, “Substituted pyrazoloazepin-8-ones and their use as phosphodiesterase inhibitors” (LEO Pharma A/S, priority 2016, dated 2020)
